How the values were obtained:
[1] = Inhibition of EGFR Del ex19/T790M double mutant in human PC9 cells assessed as suppression of cell proliferation
[2] = Inhibition of EGFR Del ex19 mutant in human HCC827 cells assessed as suppression of cell proliferation
[3] = Inhibition of wild type EGFR in human NCI-H1666 cells assessed as suppression of cell proliferation
[4] = Inhibition of EGFR Del ex19 mutant in human PC9 cells assessed as suppression of cell proliferation
[5] = Inhibition of EGFR L858R/T790M double mutant in human NCI-H1975 cells assessed as suppression of cell proliferation

IC50 [1]: 8 nM
IC50 [2]: 8 nM
IC50 [3]: 230 nM
IC50 [4]: 8 nM
IC50 [5]: 8 nM
Structure (SMILES): C=CC(=O)N1CC[C@@H](Oc2nc(Nc3ccc(N4CCC(N5CCN(C)CC5)CC4)cc3)c(C(N)=O)nc2CC)C1 [US9085540, 54]
